In US11267811B2, “Small molecule inhibitors of galectin-3” (BRISTOL-MYERS SQUIBB COMPANY, priority 2017, dated 2022) one finds IC50 data, which are given here for 40 molecules.

Structures are written as SMILES.

The target in the first experiment is His-tagged recombinant human Gal-3 (hGal-3) (Homo sapiens (Human), UniProt P17931). In words: Gal-3 HTRF assay (His-tagged hGal-3 binding to B-ASF).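 Also: compounds preincubated 30 min with hGal-3, then 1 h with B-ASF, detection via terbium anti-His antibody and streptavidin d2. Control with B-ASF counts as full signal, omitting B-ASF as background.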 The conditions noted are these: HTRF, hGal-3 15 nM, B-ASF 15 nM; read-out: hGal-3 IC50.
Chain of His-tagged recombinant human Gal-3 (hGal-3) (P17931 whole entry): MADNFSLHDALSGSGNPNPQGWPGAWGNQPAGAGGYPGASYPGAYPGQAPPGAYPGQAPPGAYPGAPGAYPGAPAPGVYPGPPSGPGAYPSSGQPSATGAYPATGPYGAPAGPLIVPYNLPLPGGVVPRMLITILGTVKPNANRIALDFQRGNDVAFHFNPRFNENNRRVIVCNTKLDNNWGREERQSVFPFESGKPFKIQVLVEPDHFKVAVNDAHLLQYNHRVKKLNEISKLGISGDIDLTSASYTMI
On to `OC[C@H]1O[C@@H](c2nncn2-c2ccc(F)c(Cl)c2)[C@H](O)[C@@H](n2cc(-c3cc(F)c(F)c(F)c3)nn2)[C@H]1O` [Example 156], for which the half-maximal inhibitory concentration (IC50) turned out to be 50 nM.
For the molecule `OC[C@H]1O[C@@H](c2ncnn2-c2cc(Cl)ccc2Cl)[C@H](O)[C@@H](n2cc(-c3cc(F)c(F)c(F)c3)nn2)[C@H]1O` [Example 47], the IC50 came out at 80 nM.
The same measure, in the same setting: then `COc1cccc(-n2cnnc2[C@@H]2O[C@H](CO)[C@H](O)[C@H](n3cc(-c4cc(F)c(F)c(F)c4)nn3)[C@H]2O)n1` [Example 134], with 570 nM; and `OC[C@H]1O[C@@H](c2nncn2-c2cnc3ccccc3c2)[C@H](O)[C@@H](n2cc(-c3cc(F)c(F)c(F)c3)nn2)[C@H]1O` [Example 123], with 100 nM.
In the case of `OC[C@H]1O[C@@H](c2nncn2-c2ccc(N3CCNCC3)c(Cl)c2)[C@H](O)[C@@H](n2cc(-c3cc(F)c(F)c(F)c3)nn2)[C@H]1O` [Example 141, (2S,3R,4R,5R,6R)-2-(4-(3-chloro-4-(piperazin-1-yl)phenyl)-4H-1,2,4-triazol-3-yl)-6-(hydroxymethyl)-4-(4-(3,4,5-trifluorophenyl)-1H-1,2,3-triazol-1-yl)tetrahydro-2H-pyran-3,5-diol], the IC50 turned out to be 130 nM.
Consider `OC[C@H]1O[C@@H](n2nncc2-c2cccc(Cl)c2)[C@H](F)[C@@H](n2cc(-c3cc(F)c(F)c(F)c3)nn2)[C@H]1O` [Example 18, (2R,3R,4S,5R,6R)-6-(5-(3-chlorophenyl)-1H-1,2,3-triazol-1-yl)-5-fluoro-2-(hydroxymethyl)-4-(4-(3,4,5-trifluorophenyl)-1H-1,2,3-triazol-1-yl)tetrahydro-2H-pyran-3-ol], for which the IC50 is 1040 nM.
The same measure, in the same setting: with `OC[C@H]1O[C@@H](c2nncn2-c2ccc(OC(F)(F)F)cc2)[C@H](O)[C@@H](n2cc(-c3cc(F)c(F)c(F)c3)nn2)[C@H]1O` [Example 94] the figure was 1130 nM; with `Cc1nc([C@@H]2O[C@H](CO)[C@H](O)[C@H](n3cc(-c4cc(F)c(F)c(F)c4)nn3)[C@H]2O)c(-c2cccc(Cl)c2)s1` [Example 284, (2S,3R,4R,5R,6R)-2-(5-(3-chlorophenyl)-2-methylthiazol-4-yl)-6-(hydroxymethyl)-4-(4-(3,4,5-trifluorophenyl)-1H-1,2,3-triazol-1-yl)tetrahydro-2H-pyran-3,5-diol], 2400 nM.
The same measure, in the same setting: then `OC[C@H]1O[C@@H](c2ncnn2-c2ccc(C(F)(F)F)cc2)[C@H](O)[C@@H](n2cc(-c3cc(F)c(F)c(F)c3)nn2)[C@H]1O` [Example 25], with 560 nM.
As to `CS(=O)(=O)Nc1cccc(-n2cnnc2[C@@H]2O[C@H](CO)[C@H](O)[C@H](n3cc(-c4cc(F)c(F)c(F)c4)nn3)[C@H]2O)c1` [Example 113], the IC50 is 480 nM.
With `Cc1nc2cc(Cl)c(-n3ncnc3[C@@H]3O[C@H](CO)[C@H](O)[C@H](n4cc(-c5cc(F)c(F)c(F)c5)nn4)[C@H]3O)cc2s1` [Example 51], the IC50 amounted to 70 nM.
As to `OC[C@H]1O[C@@H](c2nncn2-c2ccc3ncccc3c2)[C@H](O)[C@@H](n2cc(-c3cc(F)c(F)c(F)c3)nn2)[C@H]1O` [Example 107], the IC50 is 50 nM.
The same measure, in the same setting: then `OC[C@H]1O[C@@H](c2nncn2-c2cc(Cl)cc(Cl)c2)[C@H](O)[C@@H](n2cc(-c3cc(F)c(F)c(F)c3)nn2)[C@H]1O` [Example 101], with 80 nM.
The same measure, in the same setting: with `CO[C@@H]1[C@@H](n2cc(-c3cc(F)c(F)c(F)c3)nn2)[C@@H](O)[C@@H](CO)O[C@H]1c1ncnn1-c1cccc(Cl)c1` [Example 54] the figure was 83 nM; with `CO[C@@H]1[C@@H](n2cc(-c3cc(F)c(F)c(F)c3)nn2)[C@@H](O)[C@@H](CO)O[C@H]1c1nncn1-c1ccc2nc(C)sc2c1` [Example 282, (2R,3R,4S,5R,6S)-2-(hydroxymethyl)-5-methoxy-6-(4-(2-methylbenzo[d]thiazol-6-yl)-4H-1,2,4-triazol-3-yl)-4-(4-(3,4,5-trifluorophenyl)-1H-1,2,3-triazol-1-yl)tetrahydro-2H-pyran-3-ol], 30 nM.
Same read-out and setting: with `OC[C@H]1O[C@@H](c2nncn2-c2cc(Cl)cc3cccnc23)[C@H](OCC(F)F)[C@@H](n2cc(-c3ccc(Br)c(F)c3)nn2)[C@H]1O` [Example 323, (2R,3R,4S,5R,6S)-4-(4-(4-bromo-3-fluorophenyl)-1H-1,2,3-triazol-1-yl)-6-(4-(6-chloroquinolin-8-yl)-4H-1,2,4-triazol-3-yl)-5-(2,2-difluoroethoxy)-2-(hydroxymethyl)tetrahydro-2H-pyran-3-ol] the figure was 130 nM; with `Cc1nc([C@@H]2O[C@H](CO)[C@H](O)[C@H](n3cc(-c4cc(F)c(F)c(F)c4)nn3)[C@H]2O)n(-c2cc(C(F)(F)F)ccc2Cl)n1` [Example 70], 50 nM.
As for `OC[C@H]1O[C@@H](c2nncn2-c2ccc3c(c2)OCO3)[C@H](O)[C@@H](n2cc(-c3cc(F)c(F)c(F)c3)nn2)[C@H]1O` [Example 76], the IC50 worked out at 120 nM.
On the same count and under the same terms, then `Cc1nc([C@@H]2O[C@H](CO)[C@H](O)[C@H](n3cc(-c4cc(F)c(F)c(F)c4)nn3)[C@H]2O)n(-c2cncc(Cl)c2)n1` [Example 65], with 220 nM; and `OC[C@H]1O[C@@H](c2nncn2-c2cccc(Oc3ccccc3)c2)[C@H](O)[C@@H](n2cc(-c3cc(F)c(F)c(F)c3)nn2)[C@H]1O` [Example 78], with 830 nM; and `CSc1nnc([C@@H]2O[C@H](CO)[C@H](O)[C@H](n3cc(-c4cc(F)c(F)c(F)c4)nn3)[C@H]2O)n1-c1ccc(Cl)c(Cl)c1` [Example 278, (2S,3R,4R,5R,6R)-2-(4-(3,4-dichlorophenyl)-5-(methylthio)-4H-1,2,4-triazol-3-yl)-6-(hydroxymethyl)-4-(4-(3,4,5-trifluorophenyl)-1H-1,2,3-triazol-1-yl)tetrahydro-2H-pyran-3,5-diol], with 120 nM.
Still for that read-out and setting: with `O=C(NCc1cccnc1)c1nnc([C@@H]2O[C@H](CO)[C@H](O)[C@H](n3cc(-c4cccc(F)c4)nn3)[C@H]2O)o1` [Example 298, 5-((2R,3R,4S,5R,6R)-4-(4-(3-fluorophenyl)-1H-1,2,3-triazol-1-yl)-3,5-dihydroxy-6-(hydroxymethyl)tetrahydro-2H-pyran-2-yl)-N-(pyridin-3-ylmethyl)-1,3,4-oxadiazole-2-carboxamide] the figure was 43600 nM; with `COc1cccc(-c2cnnn2[C@@H]2O[C@H](CO)[C@H](O)[C@H](n3cc(-c4cc(F)c(F)c(F)c4)nn3)[C@H]2O)c1` [Example 9], 158 nM.
Same read-out and setting: with `Cc1nc2ccc(-n3ncnc3[C@@H]3O[C@H](CO)[C@H](O)[C@H](n4cc(-c5cc(F)c(N6CCOCC6)c(F)c5)nn4)[C@H]3O)cc2s1` [Example 243] the figure was 80 nM.
Consider `OC[C@H]1O[C@@H](c2nncn2-c2ccc(Cl)cc2Cl)[C@H](O)[C@@H](n2cc(-c3cc(F)c(F)c(F)c3)nn2)[C@H]1O` [Example 83], for which the IC50 is 900 nM.
On to `Cn1cc2ccc(-n3cnnc3[C@@H]3O[C@H](CO)[C@H](O)[C@H](n4cc(-c5cc(F)c(F)c(F)c5)nn4)[C@H]3O)cc2n1` [Example 167], for which the IC50 turned out to be 300 nM.
On the same count and under the same terms, with `OC[C@H]1O[C@@H](c2nncn2-c2ccc(-n3cccc3)cc2)[C@H](O)[C@@H](n2cc(-c3cc(F)c(F)c(F)c3)nn2)[C@H]1O` [Example 109] the figure was 520 nM; with `OC[C@H]1O[C@@H](c2nncn2-c2ccc(Cl)c(C(F)(F)F)c2)[C@H](O)[C@@H](n2cc(-c3cc(F)c(F)c(F)c3)nn2)[C@H]1O` [Example 87], 100 nM.
The same measure, in the same setting: with `Cc1nc([C@@H]2O[C@H](CO)[C@H](O)[C@H](n3cc(-c4cc(F)c(F)c(F)c4)nn3)[C@H]2O)n(-c2cc(F)ccc2C(F)(F)F)n1` [Example 71] the figure was 90 nM; with `Cc1nc2ccc(-n3cnnc3[C@@H]3O[C@H](CO)[C@H](O)[C@H](n4cc(-c5cc(F)c(Br)c(F)c5)nn4)[C@H]3OCC(F)F)cc2s1` [Example 321, (2R,3R,4S,5R,6S)-4-(4-(4-bromo-3,5-difluorophenyl)-1H-1,2,3-triazol-1-yl)-5-(2,2-difluoroethoxy)-2-(hydroxymethyl)-6-(4-(2-methylbenzo[d]thiazol-6-yl)-4H-1,2,4-triazol-3-yl)tetrahydro-2H-pyran-3-ol], 53 nM.

Still in this experiment, the particulars now being: read-out: hGal3 IC50.
Turning to `Cc1nc2ccc(-n3ncnc3[C@@H]3O[C@H](CO)[C@H](O)[C@H](n4cc(-c5ccc(C#N)c(F)c5)nn4)[C@H]3O)cc2s1` [Example 230], the IC50 came to 450 nM.
`CO[C@@H]1[C@@H](n2cc(-c3cc(F)c(Cl)c(F)c3)nn2)[C@@H](O)[C@@H](CO)O[C@H]1c1nnc(C)n1-c1cc(Cl)ccc1C(F)(F)F` [Example 310]: the IC50 was 22 nM.
Same read-out and setting: then `Cc1nc2ccc(-n3ncnc3[C@@H]3O[C@H](CO)[C@H](O)[C@H](n4cc(-c5ccc(NS(C)(=O)=O)c(F)c5)nn4)[C@H]3O)cc2s1` [Example 203], with 2120 nM.
With `Cc1nnc([C@@H]2O[C@H](CO)[C@H](O)[C@H](n3cc(-c4cc(F)c(Cl)c(F)c4)nn3)[C@H]2O)n1-c1cc(Cl)ccc1C(F)(F)F` [Example 311], the IC50 amounted to 12 nM.
Same read-out and setting: then `Cc1nc2ccc(-n3ncnc3[C@@H]3O[C@H](CO)[C@H](O)[C@H](n4cc(-c5cc(C)c(C#N)c(F)c5)nn4)[C@H]3O)cc2s1` [Example 236], with 240 nM; and `Cc1nc2ccc(-n3ncnc3[C@@H]3O[C@H](CO)[C@H](O)[C@H](n4cc(-c5ccc(N)c(F)c5)nn4)[C@H]3O)cc2s1` [Example 202], with 440 nM; and `Cc1nc2ccc(-n3ncnc3[C@@H]3O[C@H](CO)[C@H](O)[C@H](n4cc(-c5ccc(N(C)S(C)(=O)=O)c(F)c5)nn4)[C@H]3O)cc2s1` [Example 208], with 3820 nM.

Still in this experiment, the particulars now being: read-out: hGal IC50.
On to `Cc1nc([C@@H]2O[C@H](CO)[C@H](O)[C@H](n3cc(-c4ccc(Br)c(F)c4)nn3)[C@H]2O)n(-c2cc(Cl)cc3ccncc23)n1` [Example A39], for which the concentration for half-maximal inhibition (IC50) came to 161 nM.
As to `Cc1nc([C@@H]2O[C@H](CO)[C@H](O)[C@H](n3cc(-c4ccc(Cl)c(F)c4F)nn3)[C@H]2O)n(-c2cc(Cl)ccc2Cl)n1` [Example A72], the IC50 was found to be 11 nM.
For the molecule `COc1cc(-c2cn([C@H]3[C@@H](O)[C@@H](CO)O[C@@H](c4nc(C)nn4-c4cc(Cl)ccc4C(F)(F)F)[C@@H]3O)nn2)ccc1Cl` [Example A79], the IC50 was 40 nM.
